Assay [1] deals with mt6363 (DNA, G4) AGGGACGCGGGCGGGGGATATAGGGT
Put plainly: CD melting at 265 nm. As to conditions: 20 mM K+; 4 uM DNA, 8 uM compound.

Assay [2] concerns mt1015 (DNA, G4) GGGCTTGATGTGGGGAGGGGTGTTTAAGGG
Put plainly: fluorescence lifetime. As to conditions: qualitative; decay time ~3.3 ns.

On to `C[n+]1ccccc1/C=C/c1ccc2c(c1)c1cc(/C=C/c3cccc[n+]3C)ccc1n2CCCCCCCCCCCC[N+]1(C)CCCCC1`, for which the dTm in assay [1] is ~ 30 °C. The binding entry in assay [2] is “yes”.

Turning to `C[n+]1ccccc1/C=C/c1ccc2c(c1)c1cc(/C=C/c3cccc[n+]3C)ccc1n2CCCCCC[N+]1(C)CCCCC1`, the dTm in assay [1] is ~ 30 °C.

Values taken from article PMC4666356 (2015).
